The record followed here is patent publication US20250100959A1, “METHOD FOR STORING REDUCED COENZYME Q10” (KANEKA CORPORATION, priority 2021, published 2025).

Series [1] can be described thus: Measurement of water activity (AquaLab Series 4TE). It is filed as physicochemical. To be noted: for water activity at 25° C.: composition or crystal as placed in the vial; for water activity in the packaged body: packaged body with controlled relative humidity. How it is done:
The water activity was measured with AquaLab Series 4TE (METER Group Inc.). A sample having a volume of about 5 ml in a sample dish was placed in AquaLab Series 4TE, and the water activity at 25° C., was measured.

Series [2] in a line: Evaluation of oxidation stability: QH residual rate after storage, QH ratio by HPLC. It is filed as physicochemical. The protocol: The weight ratio of reduced coenzyme Q10 to total coenzyme Q10 (namely, reduced coenzyme Q10/(oxidized coenzyme Q10+reduced coenzyme Q10)) is defined as “QH ratio”. The QH ratio was determined by the following HPLC analysis. For the evaluation of oxidation stability, a rate of the change in the QH ratio at the end of the evaluation from that at the beginning of the evaluation was defined as “QH residual rate”, and the QH residual rate determined by the following expression was used as a measure of oxidation stability.
QH residual rate (%)=100×QH ratio at the end of the evaluation/QH ratio at the beginning of the evaluation
Column: SYMMETRY C18 (manufactured by Waters); 250 mm (length), 4.6 mm (inner diameter)
Mobile phase: C2H5OH:CH3OH=4:3 (v:v)
Detection wavelength: 210 nm

Where [3] appears, read: sealed aluminum laminate bag, packed at controlled relative humidity, stored at 25° C., 4 weeks.
Where [4] appears, read: packaged body with controlled internal relative humidity, stored at 40° C., 2 weeks.

As for `COc1c(O)c(C)c(C/C=C(\C)CC/C=C(\C)CC/C=C(\C)CC/C=C(\C)CC/C=C(\C)CC/C=C(\C)CC/C=C(\C)CC/C=C(\C)CC/C=C(\C)CCC=C(C)C)c(O)c1OC` [Comparative Example 1, reduced coenzyme Q10], in series [1], the “water activity at 25° C.” value is reported as 0.17. In series [2] (sealed glass vial, stored at 40° C., relative humidity 75%, 4 weeks), the “QH residual rate (%)” value is reported as 87.5%.
Consider `COc1c(O)c(C)c(C/C=C(\C)CC/C=C(\C)CC/C=C(\C)CC/C=C(\C)CC/C=C(\C)CC/C=C(\C)CC/C=C(\C)CC/C=C(\C)CC/C=C(\C)CCC=C(C)C)c(O)c1OC` [Comparative Example 2, reduced coenzyme Q10], for which the “water activity at 25° C.” value in series [1] came out at 0.13. In addition, in series [2] (sealed glass vial, stored at 25° C., relative humidity 60%, 4 weeks), the “QH residual rate (%)” value stood at 33.3%.
Regarding `COc1c(O)c(C)c(C/C=C(\C)CC/C=C(\C)CC/C=C(\C)CC/C=C(\C)CC/C=C(\C)CC/C=C(\C)CC/C=C(\C)CC/C=C(\C)CC/C=C(\C)CCC=C(C)C)c(O)c1OC` [Example 3, reduced coenzyme Q10], the “water activity in the packaged body” value in series [1] was determined as 0.50. Moreover, the “QH residual rate (%)” value in series [2] (setting [3]) worked out at 92.3%.
With `COc1c(O)c(C)c(C/C=C(\C)CC/C=C(\C)CC/C=C(\C)CC/C=C(\C)CC/C=C(\C)CC/C=C(\C)CC/C=C(\C)CC/C=C(\C)CC/C=C(\C)CCC=C(C)C)c(O)c1OC` [Example 4, reduced coenzyme Q10], the “water activity in the packaged body” value in series [1] is listed as 0.85. Besides, the “QH residual rate (%)” value in series [2] (setting [3]) is listed as 95.3%.
As to “co-crystal composed of QH and nicotinamide [Comparative Example 3]”, the “water activity in the packaged body” value in series [1] worked out at 0.48. In addition, in series [2] (setting [4]), the “QH residual rate (%)” value was determined as 82.6%.
Turning to “co-crystal composed of QH and nicotinamide [Example 10]”, the “water activity in the packaged body” value in series [1] amounted to 0.53. In addition, in series [2] (setting [4]), the “QH residual rate (%)” value is 92.2%.
